Experimental data: PubChem BioAssay AID1963851 (Molecular Pharmacology Branch, DTP, NCI, 2024)

Test system: 188146-221-R-J1-PDC complex spheroid viability
Assay: Anticancer human tumor 188146-221-R-J1-PDC patient-derived colon adenocarcinoma cell line growth inhibition [POLQ]
Conditions: for IC50: curve of first compound; for viability, T/C: stronger effect = lower value
How it was run: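 PDC + HUVEC + MSC complex spheroids; POLQ inhibitors ± partner drugs; top conc. at/near clinical Cmax, else 10 microM (SN-38 1 microM), half-log dilutions; 37 degrees C, 5% CO2.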

[1] = second compound 0.0316 µM, first compound 0.0316 µM
[2] = second compound 0.0316 µM, first compound 0.1 µM
[3] = second compound 0.0316 µM, first compound 0.316 µM
[4] = second compound 0.0316 µM, first compound 1 µM
[5] = second compound 0.0316 µM, first compound 3.16 µM
[6] = second compound 0.0316 µM, first compound 10 µM
[7] = second compound 0.1 µM, first compound 0.0316 µM
[8] = second compound 0.1 µM, first compound 0.1 µM
[9] = second compound 0.1 µM, first compound 0.316 µM
[10] = second compound 0.1 µM, first compound 1 µM
[11] = second compound 0.1 µM, first compound 3.16 µM
[12] = second compound 0.1 µM, first compound 10 µM
[13] = second compound 0.316 µM, first compound 0.0316 µM
[14] = second compound 0.316 µM, first compound 0.1 µM
[15] = second compound 0.316 µM, first compound 0.316 µM
[16] = second compound 0.316 µM, first compound 1 µM
[17] = second compound 0.316 µM, first compound 3.16 µM
[18] = second compound 0.316 µM, first compound 10 µM
[19] = second compound 1 µM, first compound 0.0316 µM
[20] = second compound 1 µM, first compound 0.1 µM
[21] = second compound 1 µM, first compound 0.316 µM
[22] = second compound 1 µM, first compound 1 µM
[23] = second compound 1 µM, first compound 3.16 µM
[24] = second compound 1 µM, first compound 10 µM
[25] = second compound 3.16 µM, first compound 0.0316 µM
[26] = second compound 3.16 µM, first compound 0.1 µM
[27] = second compound 3.16 µM, first compound 0.316 µM
[28] = second compound 3.16 µM, first compound 1 µM
[29] = second compound 3.16 µM, first compound 3.16 µM
[30] = second compound 3.16 µM, first compound 10 µM
[31] = second compound 10 µM, first compound 0.0316 µM
[32] = second compound 10 µM, first compound 0.1 µM
[33] = second compound 10 µM, first compound 0.316 µM
[34] = second compound 10 µM, first compound 1 µM
[35] = second compound 10 µM, first compound 3.16 µM
[36] = second compound 10 µM, first compound 10 µM
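Note: spheroids exposed to compounds for seven days.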
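Throughout, for viability, T/C: 100% = DMSO vehicle control viability.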

For CCCS(=O)(=O)Nc1ccc(F)c(C(=O)c2c[nH]c3ncc(-c4ccc(Cl)cc4)cc23)c1F + Nc1ccc(C#CCN(C(=O)Cc2ncc(C(F)(F)F)cc2C(F)(F)F)c2ccc(F)cc2)nn1, the IC50 (second compound 0.0316 µM) was 6.67 µM, the IC50 (second compound 0.1 µM) was 6.11 µM and the IC50 (second compound 0.316 µM) was 6.9 µM. For the same compound, the IC50 (second compound 1 µM) was 6.33 µM, the IC50 (second compound 3.16 µM) was 6.27 µM and the IC50 (second compound 10 µM) was 6.54 µM. For the same compound, the viability, T/C [1] was 104%, the viability, T/C [2] was 116% and the viability, T/C [3] was 101%. For the same compound, the viability, T/C [4] was 84.7%, the viability, T/C [5] was 85.3% and the viability, T/C [6] was 33.6%. The viability, T/C [7] was 119%, the viability, T/C [8] was 98.2% and the viability, T/C [9] was 103%. For the same compound, the viability, T/C [10] was 89.2%, the viability, T/C [11] was 81.9% and the viability, T/C [12] was 29%. For the same compound, the viability, T/C [13] was 94.4%, the viability, T/C [14] was 99.6% and the viability, T/C [15] was 101%. The viability, T/C [16] was 88.7%, the viability, T/C [17] was 93.8% and the viability, T/C [18] was 29.2%. It also gave a viability, T/C [19] of 95.9%, a viability, T/C [20] of 96.7% and a viability, T/C [21] of 88.9%. The viability, T/C [22] was 76.8%, the viability, T/C [23] was 80.2% and the viability, T/C [24] was 33%. It also gave a viability, T/C [25] of 98.5%, a viability, T/C [26] of 104% and a viability, T/C [27] of 104%. For the same compound, the viability, T/C [28] was 77.2%, the viability, T/C [29] was 84% and the viability, T/C [30] was 30.6%. It also gave a viability, T/C [31] of 116%, a viability, T/C [32] of 112% and a viability, T/C [33] of 103%. It also gave a viability, T/C [34] of 91.5%, a viability, T/C [35] of 82.5% and a viability, T/C [36] of 33.1%.

O=C(c1cc(Cc2n[nH]c(=O)c3ccccc23)ccc1F)N1CCN(C(=O)C2CC2)CC1 + Nc1ccc(C#CCN(C(=O)Cc2ncc(C(F)(F)F)cc2C(F)(F)F)c2ccc(F)cc2)nn1 gave an IC50 (second compound 0.0316 µM) greater than 10 µM, an IC50 (second compound 0.1 µM) greater than 10 µM and an IC50 (second compound 0.316 µM) greater than 10 µM. For the same compound, the IC50 (second compound 1 µM) was greater than 10 µM, the IC50 (second compound 3.16 µM) was greater than 10 µM and the IC50 (second compound 10 µM) was greater than 10 µM. It also gave a viability, T/C [1] of 99.7%, a viability, T/C [2] of 116% and a viability, T/C [3] of 104%. It also gave a viability, T/C [4] of 98.3%, a viability, T/C [5] of 93.6% and a viability, T/C [6] of 72.2%. For the same compound, the viability, T/C [7] was 111%, the viability, T/C [8] was 100% and the viability, T/C [9] was 107%. The viability, T/C [10] was 90.7%, the viability, T/C [11] was 101% and the viability, T/C [12] was 75%. The viability, T/C [13] was 116%, the viability, T/C [14] was 88.5% and the viability, T/C [15] was 89.9%. For the same compound, the viability, T/C [16] was 106%, the viability, T/C [17] was 80.9% and the viability, T/C [18] was 81.6%. It also gave a viability, T/C [19] of 117%, a viability, T/C [20] of 90.3% and a viability, T/C [21] of 94.3%. For the same compound, the viability, T/C [22] was 92.5%, the viability, T/C [23] was 96% and the viability, T/C [24] was 69.1%. It also gave a viability, T/C [25] of 101%, a viability, T/C [26] of 104% and a viability, T/C [27] of 97%. It also gave a viability, T/C [28] of 102%, a viability, T/C [29] of 91.2% and a viability, T/C [30] of 77.1%. The viability, T/C [31] was 95.3%, the viability, T/C [32] was 95.3% and the viability, T/C [33] was 110%. For the same compound, the viability, T/C [34] was 89.8%, the viability, T/C [35] was 88.2% and the viability, T/C [36] was 73%.

CCc1c2c(nc3ccc(O)cc13)-c1cc3c(c(=O)n1C2)COC(=O)[C@]3(O)CC + Nc1ccc(C#CCN(C(=O)Cc2ncc(C(F)(F)F)cc2C(F)(F)F)c2ccc(F)cc2)nn1 was tested, and the IC50 (second compound 0.0316 µM) was 0.0198 µM, the IC50 (second compound 0.1 µM) was 0.0251 µM and the IC50 (second compound 0.316 µM) was 0.0207 µM. The IC50 (second compound 1 µM) was 0.0232 µM, the IC50 (second compound 3.16 µM) was 0.0265 µM and the IC50 (second compound 10 µM) was 0.0232 µM. For the same compound, the viability, T/C (second compound 0.0316 µM, first compound 0.00316 µM) was 94.7%, the viability, T/C (second compound 0.0316 µM, first compound 0.01 µM) was 69.8% and the viability, T/C [1] was 35%. For the same compound, the viability, T/C [2] was 20.9%, the viability, T/C [3] was 12.5% and the viability, T/C [4] was 7.87%. The viability, T/C (second compound 0.1 µM, first compound 0.00316 µM) was 101%, the viability, T/C (second compound 0.1 µM, first compound 0.01 µM) was 81.1% and the viability, T/C [7] was 42.1%. For the same compound, the viability, T/C [8] was 18.5%, the viability, T/C [9] was 13.3% and the viability, T/C [10] was 10.1%. It also gave a viability, T/C (second compound 0.316 µM, first compound 0.00316 µM) of 100%, a viability, T/C (second compound 0.316 µM, first compound 0.01 µM) of 73.1% and a viability, T/C [13] of 35.9%. For the same compound, the viability, T/C [14] was 18.3%, the viability, T/C [15] was 12.4% and the viability, T/C [16] was 8.23%. For the same compound, the viability, T/C (second compound 1 µM, first compound 0.00316 µM) was 88.9%, the viability, T/C (second compound 1 µM, first compound 0.01 µM) was 77.8% and the viability, T/C [19] was 37.7%. The viability, T/C [20] was 22.3%, the viability, T/C [21] was 13.7% and the viability, T/C [22] was 8.08%. It also gave a viability, T/C (second compound 3.16 µM, first compound 0.00316 µM) of 90.5%, a viability, T/C (second compound 3.16 µM, first compound 0.01 µM) of 89.7% and a viability, T/C [25] of 42.2%. It also gave a viability, T/C [26] of 19.3%, a viability, T/C [27] of 12.6% and a viability, T/C [28] of 8.98%. The viability, T/C (second compound 10 µM, first compound 0.00316 µM) was 98.6%, the viability, T/C (second compound 10 µM, first compound 0.01 µM) was 75.3% and the viability, T/C [31] was 38.9%. It also gave a viability, T/C [32] of 22.6%, a viability, T/C [33] of 15.7% and a viability, T/C [34] of 8.14%.

In the case of O=C(Nc1ccc(O)c(NS(=O)(=O)c2ccc(F)cc2)c1)c1ccc(-c2ccccc2)cc1 + Cc1cccc(N(C)C(=O)C2C(O)CCN2c2nc(C)cc(C(F)(F)F)c2C#N)c1, the IC50 (second compound 0.0316 µM) is reported as greater than 10 µM, the IC50 (second compound 0.1 µM) is reported as greater than 10 µM and the IC50 (second compound 0.316 µM) is reported as greater than 10 µM. For the same compound, the IC50 (second compound 1 µM) was greater than 10 µM, the IC50 (second compound 3.16 µM) was greater than 10 µM and the IC50 (second compound 10 µM) was greater than 10 µM. It also gave a viability, T/C [1] of 100%, a viability, T/C [2] of 103% and a viability, T/C [3] of 109%. The viability, T/C [4] was 107%, the viability, T/C [5] was 100% and the viability, T/C [6] was 50.2%. It also gave a viability, T/C [7] of 103%, a viability, T/C [8] of 92.1% and a viability, T/C [9] of 93.5%. The viability, T/C [10] was 87.8%, the viability, T/C [11] was 106% and the viability, T/C [12] was 60.6%. The viability, T/C [13] was 102%, the viability, T/C [14] was 98.1% and the viability, T/C [15] was 103%. The viability, T/C [16] was 80.2%, the viability, T/C [17] was 83.2% and the viability, T/C [18] was 75.2%. For the same compound, the viability, T/C [19] was 98.5%, the viability, T/C [20] was 90.9% and the viability, T/C [21] was 92.6%. It also gave a viability, T/C [22] of 86.9%, a viability, T/C [23] of 84.1% and a viability, T/C [24] of 65.2%. The viability, T/C [25] was 96%, the viability, T/C [26] was 92.3% and the viability, T/C [27] was 89.5%. For the same compound, the viability, T/C [28] was 99%, the viability, T/C [29] was 90.2% and the viability, T/C [30] was 52.1%. For the same compound, the viability, T/C [31] was 92.3%, the viability, T/C [32] was 91.3% and the viability, T/C [33] was 101%. For the same compound, the viability, T/C [34] was 87.3%, the viability, T/C [35] was 79.6% and the viability, T/C [36] was 51.2%.
